Patent publication US7601745B2, “Heterocyclic NF-kB inhibitors” (4SC AG, priority 2004, dated 2009)

system: A549-NF-κB-SEAP reporter cells; experiment: Inhibition of NF-κB-induced inflammation ([…] NINA Instant Assay, SEAP reporter); type: cell-based; conditions: NF-κB inflammation assay
Description: For the determination of anti-inflammatory activity of the compounds the […]® NINA Instant Assay from Cell Culture Service GmBH was used. This assay is based on recombinant A549-NF-κB-SEAP reporter cells preseeded in 96-well flat bottom plates. As the transfected reportergen for SEAP (secreted embryonic alkaline phosphatase) is under transcriptional control of a NF-κB-responsive element, the expression of this reporter is activated upon stimulation with TNF-α. SEAP secretion into the culture supernatant can be detected by the chemiluminescent substrate CSPD®. Test compounds that inhibit the NF-κB activation show reduced SEAP activity and reduced luminescent readout.
Following 18 h of reactivation at 37° C., 5% CO2 and 90% relative humidity, the cells were incubated with 0.01 up to 100 μM of test compound for 4.5 h before stimulation with 2 ng/ml TNF-α. After stimulation with TNF-α for 22 h endogenous phosphatases were inactivated and CSPD® substrate was supplied for 40 min. SEAP activity then was quantified by measuring luminescence as relative light units (RLU) using a Tecan Ultra reader. Each data point was recorded in quadruplicates and EC50 values were calculated via fitting function and the Microsoft Excel Solver.

Structure (SMILES) | Biological activity (inhibition in the NF-κB inflammation assay)
N=C(NC(=O)c1csc(N2CCOCC2)n1)Nc1nc2ccccc2[nH]1 [compound 91] | + (“+” stands for 50-80% inhibition)

same assay, conditions: compounds of formula (I); TNF-α stimulated reporter cells; test concentration not given

Structure (SMILES) | Biological activity (NF-κB inflammation assay, inhibition)
N#Cc1ccc(C(=O)N2CCC(c3nc(C(=O)N4CCN(c5cccc(C(F)(F)F)c5)CC4)cs3)CC2)cc1 [compound 70] | ++ (“++” means 80-90%)
O=C(c1csc(C2CCN(C(=O)c3ccccc3OC(F)(F)F)CC2)n1)N1CCN(c2nc3ccccc3n2Cc2ccc(F)cc2)CC1 [compound 98] | +++ (“+++” stands for 90-100% inhibition)
O=C(c1csc(C2CCN(Cc3ccncc3)CC2)n1)N1CCN(c2cccc(C(F)(F)F)c2)CC1 [compound 107] | + (“+” stands for 50-80% inhibition)
O=C(c1csc(C2CCN(Cc3ccccc3OC(F)(F)F)CC2)n1)N1CCN(c2cccc(C(F)(F)F)c2)CC1 [compound 109] | + (“+” stands for 50-80% inhibition)
O=C(c1csc(C2CCN(C(=O)c3ccccc3OC(F)(F)F)CC2)n1)N(Cc1ccc(Cl)cc1)Cc1ccc(Cl)cc1 [compound 110] | + (“+” stands for 50-80% inhibition)
O=C(c1csc(C2CCN(C(=O)c3ccccc3OC(F)(F)F)CC2)n1)N1CCC(n2nnc3ccccc32)CC1 [compound 111] | + (“+” stands for 50-80% inhibition)
N#Cc1ccc(N2CCC(c3nc(C(=O)N4CCN(c5cccc(C(F)(F)F)c5)CC4)cs3)CC2)cc1 [compound 112] | + (“+” stands for 50-80% inhibition)
O=C(O)N1CCC(c2nc(C(=O)N3CCN(c4cccc(C(F)(F)F)c4)CC3)cs2)CC1 [compound 113] | + (“+” stands for 50-80% inhibition)
O=C(c1csc(C2CCN(Cc3cccc(OC(F)(F)F)c3)CC2)n1)N1CCN(c2cccc(C(F)(F)F)c2)CC1 [compound 115] | ++ (“++” means 80-90%)
CS(=O)(=O)c1ccc(N2CCC(c3nc(C(=O)N4CCN(c5cccc(C(F)(F)F)c5)CC4)cs3)CC2)cc1 [compound 117] | + (“+” stands for 50-80% inhibition)
O=C(c1csc(C2CCN(c3cc(C(F)(F)F)ccn3)CC2)n1)N1CCN(c2cccc(C(F)(F)F)c2)CC1 [compound 118] | + (“+” stands for 50-80% inhibition)
O=C(c1csc(C2CCN(c3ccccc3)CC2)n1)N1CCN(c2cccc(C(F)(F)F)c2)CC1 [compound 119] | + (“+” stands for 50-80% inhibition)
COc1nc(OC)nc(N2CCN(C(=O)c3csc(C4CCN(Cc5ccccc5)CC4)n3)CC2)n1 [compound 120] | + (“+” stands for 50-80% inhibition)

same assay, conditions: compounds of formula (II); TNF-α stimulated reporter cells; test concentration not given

Structure (SMILES) | Biological activity (NF-κB inflammation assay, inhibition)
O=C(c1csc(N2CCNCC2)n1)N1CCN(c2cccc(C(F)(F)F)c2)CC1 [compound 64] | + (“+” stands for 50-80% inhibition)
COc1ccccc1N1CCN(c2nc(C(=O)N3CCN(c4cccc(C(F)(F)F)c4)CC3)cs2)CC1 [compound 65] | ++ (“++” means 80-90%)
CC(=O)c1ccc(N2CCN(c3nc(C(=O)N4CCN(c5cccc(C(F)(F)F)c5)CC4)cs3)CC2)cc1 [compound 66] | ++ (“++” means 80-90%)
O=C(c1csc(N2CCN(c3cccc(C(F)(F)F)c3)CC2)n1)N1CCN(c2cccc(C(F)(F)F)c2)CC1 [compound 67] | + (“+” stands for 50-80% inhibition)
O=C(c1csc(N2CCN(c3ccccc3)CC2)n1)N1CCN(c2cccc(C(F)(F)F)c2)CC1 [compound 68] | + (“+” stands for 50-80% inhibition)
O=C(c1csc(N2CCN(c3ccc(F)cc3)CC2)n1)N1CCN(c2cccc(C(F)(F)F)c2)CC1 [compound 69] | ++ (“++” means 80-90%)
O=C(c1csc(N2CCN(Cc3ccccc3)CC2)n1)N1CCN(C(c2ccccc2)c2ccccc2)CC1 [compound 71] | +++ (“+++” stands for 90-100% inhibition)
O=C(c1csc(N2CCN(Cc3ccccc3)CC2)n1)N1CCN(c2cccc(C(F)(F)F)c2)CC1 [compound 72] | +++ (“+++” stands for 90-100% inhibition)
O=C(NCC1CCN(c2nc(C(=O)N3CCN(c4cccc(C(F)(F)F)c4)CC3)cs2)CC1)c1ccc(C(F)(F)F)c(F)c1 [compound 99] | + (“+” stands for 50-80% inhibition)
O=C(CCC1CCCC1)NCC1CCN(c2nc(C(=O)N3CCN(c4cccc(C(F)(F)F)c4)CC3)cs2)CC1 [compound 100] | + (“+” stands for 50-80% inhibition)
O=C(NCC1CCN(c2nc(C(=O)N3CCN(c4cccc(C(F)(F)F)c4)CC3)cs2)CC1)c1ccccc1OC(F)(F)F [compound 101] | + (“+” stands for 50-80% inhibition)
N#Cc1ccc(C(=O)NCC2CCN(c3nc(C(=O)N4CCN(c5cccc(C(F)(F)F)c5)CC4)cs3)CC2)cc1 [compound 102] | + (“+” stands for 50-80% inhibition)

same assay, conditions: compounds of formula (Ia); TNF-α stimulated reporter cells; test concentration not given

Structure (SMILES) | Biological activity (NF-κB inflammation assay, inhibition)
O=C(Nc1cc(F)cc2c1OCCO2)N1CCC(c2nc(C(=O)N3CCN(c4cccc(C(F)(F)F)c4)CC3)cs2)CC1 [compound 74] | ++ (“++” means 80-90%)
O=C(Nc1ccc2c(c1)OCCO2)N1CCC(c2nc(C(=O)N3CCN(c4cccc(C(F)(F)F)c4)CC3)cs2)CC1 [compound 75] | ++ (“++” means 80-90%)
Cc1cc(NC(=O)N2CCC(c3nc(C(=O)N4CCN(c5cccc(C(F)(F)F)c5)CC4)cs3)CC2)c(C(F)(F)F)o1 [compound 76] | ++ (“++” means 80-90%)
O=C(NCCc1cccs1)N1CCC(c2nc(C(=O)N3CCN(c4cccc(C(F)(F)F)c4)CC3)cs2)CC1 [compound 77] | +++ (“+++” stands for 90-100% inhibition)
CC(C)NC(=O)N1CCC(c2nc(C(=O)N3CCN(c4cccc(C(F)(F)F)c4)CC3)cs2)CC1 [compound 78] | + (“+” stands for 50-80% inhibition)
O=C(Nc1ccccc1OC(F)(F)F)N1CCC(c2nc(C(=O)N3CCN(c4cccc(C(F)(F)F)c4)CC3)cs2)CC1 [compound 79] | +++ (“+++” stands for 90-100% inhibition)
COc1cccc(NC(=O)N2CCC(c3nc(C(=O)N4CCN(c5cccc(C(F)(F)F)c5)CC4)cs3)CC2)c1 [compound 80] | + (“+” stands for 50-80% inhibition)
COc1cc(NC(=O)N2CCC(c3nc(C(=O)N4CCN(c5cccc(C(F)(F)F)c5)CC4)cs3)CC2)cc(OC)c1OC [compound 81] | ++ (“++” means 80-90%)

same assay, conditions: compounds of formula (Ib); TNF-α stimulated reporter cells; test concentration not given

Structure (SMILES) | Biological activity (NF-κB inflammation assay, inhibition)
Cc1sc(C2CCN(C(=O)c3ccccc3OC(F)(F)F)CC2)nc1CC(=O)N1CCN(c2cccc(C(F)(F)F)c2)CC1 [compound 103] | ++ (“++” means 80-90%)
